We go through one compound from patent US6361788B1, “Synergistic biocide composition” (Thor Chemie GmbH, priority 1997, dated 2002).

Like-named read-outs stand apart in the source and are kept apart here.

This assay relates to Penicillium funiculosum. In words: MIC and synergy of MIT/BIT (1:1) and BNPD in Sabouraud maltose broth, 72 h. It is filed as cell-based. The following applies: for growth of the microorganism: MIT/BIT 0 ppm; for MIC: Talaromyces funiculosus. As to the method:
In all the examples in which an active substance mixture of MIT and BIT as well as additionally a further active biocidal substance was used, the weight ratio of MIT to BIT was 1:1.
The synergy index is calculated according to the method of F. C. Kull et al., Applied Microbiology, Vol. 9 (1961), p. 538. Here the synergy index is calculated using the following formula:
Synergy index SI=Qa/QA+Qb/QB.
The synergy of an active substance that contains 2-bromo-2-nitropropane-1,3-diol (BNPD) in addition to MIT and BIT, against the microorganism Penicillium funiculosum is shown as in Example 1.
The test batches contained a Sabouraud maltose broth as a nutrient medium. The spore concentration was 10^6 per mL. The incubation time was 72 h at 25° C. Each sample was incubated on an incubation shaker at 120 rpm.

[1] abbreviates: MIT/BIT 0.0% by wt, BNPD 100.0% by wt, 72 h.

Consider `O=[N+]([O-])C(Br)(CO)CO` [BNPD, 2-bromo-2-nitropropane-1,3-diol], for which the Qb/QB under setting [1] is listed as 1.00. Moreover, under setting [1], the “Synergy index Qa/QA + Qb/QB” value came to 1.00. Besides, the “growth of the microorganism” value runs as follows: (BNPD 25 ppm, 72 h) “+”; (BNPD 50 ppm, 72 h) “+”; (BNPD 100 ppm, 72 h) “+”; (BNPD 150 ppm, 72 h) “+”; (BNPD 200 ppm, 72 h) “+”; (BNPD 300 ppm, 72 h) “+”. Moreover, the “growth of the microorganism” value runs as follows: (BNPD 400 ppm, 72 h) “+”; (BNPD 600 ppm, 72 h) “−”; (BNPD 800 ppm, 72 h) “−”; (BNPD 1000 ppm, 72 h) “−”. Moreover, the MIC was 600 µg/mL (MIT/BIT 0.0% by wt, BNPD 100.0% by wt, 72 h, read-out: MIC at BNPD concentration Qb); 600 µg/mL (MIT/BIT 0.0% by wt, BNPD 100.0% by wt, 72 h, read-out: MIC at Total concentration MIT/BIT + BNPD); 600 µg/mL (used alone, 72 h at 25° C., read-out: MIC value).
